Where a SMILES comes first, the peptide text is derived from it. Bridges are numbered along the chain shown (N, C = ends). [ ]: non-standard residue; d: D form. Phe(ol) = N[C@H](CO)Cc1ccccc1; Aib = CC(C)(N)C(=O)O
Key:
[1] = Pore-forming activity: dissipation of a membrane potential in azolectin liposomes
Protocol: The minimal inhibitory concentration (MIC) was determined according to the method of Hancock (Hancock, R. E. W. Sep. 19, 1999, posting date. [Online.] Hancock Laboratory Methods. Department of Microbiology and Immunology, University of British Columbia, British Columbia, Canada. [Antibiotics and Antimicrobial Peptides: MIC Determination by Microtitre Broth Dilution Method, last accessed September 21st.]). Permeabilization of bacterial membranes and pore-forming activity were assayed as previously described (Herbst, R., Ott, C., Jacobs, T., Marti, T., Marciano-Cabral, F., Leippe, M. Pore-forming polypeptides of the pathogenic protozoon Naegleria fowleri. J. Biol. Chem. 2002. 277:22353-22360).
(§1) To investigate the mode of action of Alvinellacine, we used the fluorescent dye SYTOX-Green® and either the Gram-positive Bacillus megaterium or the Gram-negative E. coli (FIG. 3). […] We also measured the pore-forming activity of Alvinellacine to further characterize its mode of action by using a minimalistic membrane system. More precisely, we monitored the dissipation of a membrane potential induced in liposomes composed of azolectin, a crude phospho lipid mixture from soy bean. Pore-forming activity was detected at final concentrations up to 0.5 nM, whereas the positive control Alamethicine gave a signal at 0.1 nM.

[2] = Permeabilization of liposomes filled with a fluorescent reagent; details: positive control Alamethicin
Protocol: FIG. 2 presents the ability of the Alvinellacine to create pores in liposomes, herein used to mimic bacterial membranes.
The mechanism of antibacterial activity was determined using liposomes filled with a fluorescent reagent. Liposomes consist of a bi-layer of phospholipids herein used to mimic the bacterial membrane. Permeabilization of the liposomes would result in a release of the internal compound, thus reacting with the medium and producing a fluorescent light that can be measured by spectrometry. The test is carried out with both negative and positive controls. Alamethicin, which is an antibiotic known to create pores in the bacterial membrane, is used as the positive control. The negative control is a solution of liposomes, intended for measurement of background noise (FIG. 2).

[3] = system: Bacillus megaterium; test: Permeabilization of bacterial membranes (SYTOX-Green); type: cell-based; details: Gram-positive Bacillus megaterium, pH 7.4, measured 10 minutes after addition
Protocol: (§2) FIG. 3 presents the permeabilization of Gram-positive bacteria (Bacillus megaterium) and Gram-negative bacteria (Escherichia coli) after intended use of the Alvinellacine and two other AMPs (Cecropin originated from pork and Magainin originated from amphibian). These experiences were carried out at pH 7.4. The permeabilization of bacteria was measured 10 minutes after addition of each AMP for B. megaterium, while the same measurement was done after 120 minutes after addition of each AMP for E. coli.
(§3) The minimal inhibitory concentration (MIC) was determined according to the method of Hancock (Hancock, R. E. W. Sep. 19, 1999, posting date. [Online.] Hancock Laboratory Methods. Department of Microbiology and Immunology, University of British Columbia, British Columbia, Canada. [Antibiotics and Antimicrobial Peptides: MIC Determination by Microtitre Broth Dilution Method, last accessed September 21st.]). […]
as §1, with “Pore-forming activity was detected at final concentrations up to 0.5 nM, whereas the positive control Alamethicine gave a signal at 0.1 nM.” left out

[4] = system: E. coli; test: as above; type: cell-based, Escherichia coli; details: Gram-negative E. coli, pH 7.4, measured 120 minutes after addition
Protocol: as §2, §3
as §1, with “Pore-forming activity was detected at final concentrations up to 0.5 nM, whereas the positive control Alamethicine gave a signal at 0.1 nM.” left out

Row | SMILES | final concentration at which pore-forming activity was detected [1] | permeabilization of liposomes (mechanism of antibacterial activity) [2] | membrane-permeabilizing activity compared with the two positive controls (Cecropin P1, Magainin II) [3] | membrane-permeabilizing activity compared with Cecropin P1 and Magainin II [4]
1 | CC(=O)NC(C)(C)C(=O)N1CCC[C@H]1C(=O)NC(C)(C)C(=O)N[C@@H](C)C(=O)NC(C)(C)C(=O)N[C@@H](C)C(=O)N[C@@H](CCC(N)=O)C(=O)NC(C)(C)C(=O)N[C@H](C(=O)NC(C)(C)C(=O)NCC(=O)N[C@@H](CC(C)C)C(=O)NC(C)(C)C(=O)N1CCC[C@H]1C(=O)N[C@H](C(=O)NC(C)(C)C(=O)NC(C)(C)C(=O)N[C@@H](CCC(=O)O)C(=O)N[C@@H](CCC(N)=O)C(=O)N[C@H](CO)Cc1ccccc1)C(C)C)C(C)C [Alamethicine, Alamethicin, reference compound] (Ac-[Aib]P[Aib]A[Aib]AQ[Aib]V[Aib]GL[Aib]PV[Aib][Aib]EQ[Phe(ol)]) | 0.1 nM | – | – | –
2 | CSCC[C@@H]1NC(=O)[C@@H]2CSSC[C@H](NC(=O)[C@H](CCCNC(=N)N)NC(=O)[C@H]([C@@H](C)O)NC(=O)[C@H](Cc3ccc(O)cc3)NC(=O)[C@@H](NC(=O)CNC(=O)[C@@H](N)CCCNC(=N)N)CSSC[C@@H](C(=O)N[C@H](C(=O)O)[C@@H](C)O)NC(=O)[C@H](C(C)C)NC(=O)[C@H](CCCNC(=N)N)NC1=O)C(=O)N[C@@H](Cc1c[nH]c3ccccc13)C(=O)N[C@@H](CCCCN)C(=O)N[C@@H](C(C)C)C(=O)NCC(=O)N[C@@H](CCCNC(=N)N)C(=O)N[C@@H](CC(N)=O)C(=O)NCC(=O)N[C@@H](CCCNC(=N)N)C(=O)N[C@@H](C(C)C)C(=O)N2 [Alvinellacine] (H-RGCYTRCWKVGRNGRVCMRVCT-OH; disulfide 3-21, 7-17 (inferred); N-terminus and C-terminus assumed) | up to 0.5 nM | permealibilizes the bi-layer of phospholipids | lower activity | over one order of magnitude higher
